According to ChEMBL document CHEMBL3797052 (Eur J Med Chem, 2016):

System: SK-MEL-2
Assay: Antiproliferative activity against human SK-MEL-2 cells assessed as growth inhibition after 48 hrs by sulforhodamine B assay
Assay type: functional
Details: SK-MEL-2, 48 h

SMILES | GI50 | TGI
CNC(=O)c1cc(Oc2ccc(NC(=O)Nc3ccc(Cl)c(C(F)(F)F)c3)cc2)ccn1 [SORAFENIB] | 2 µM | 3.16 µM

Same assay, conditions: SK-MEL-2, 48 h, read-out: LC50 (the source's name)

SMILES | CC50
CNC(=O)c1cc(Oc2ccc(NC(=O)Nc3ccc(Cl)c(C(F)(F)F)c3)cc2)ccn1 [SORAFENIB] | 6.31 µM

System: not listed separately
Assay: Antiproliferative activity against human LOXIMVI cells assessed as growth inhibition after 48 hrs by sulforhodamine B assay
Assay type: functional
Details: LOX IMVI

SMILES | TGI
CNC(=O)c1cc(Oc2ccc(NC(=O)Nc3ccc(Cl)c(C(F)(F)F)c3)cc2)ccn1 [SORAFENIB] | 3.16 µM

Same assay, conditions: LOX IMVI, read-out: LC50 (the source's name)

SMILES | CC50
CNC(=O)c1cc(Oc2ccc(NC(=O)Nc3ccc(Cl)c(C(F)(F)F)c3)cc2)ccn1 [SORAFENIB] | 7.94 µM

System: not listed separately
Assay: Antiproliferative activity against human SF268 cells assessed as growth inhibition after 48 hrs by sulforhodamine B assay
Assay type: functional
Details: SF-268, 48 h

SMILES | GI50 | TGI
CNC(=O)c1cc(Oc2ccc(NC(=O)Nc3ccc(Cl)c(C(F)(F)F)c3)cc2)ccn1 [SORAFENIB] | 2.51 µM | 10 µM

System: EKVX
Assay: Antiproliferative activity against human EKVX cells assessed as growth inhibition after 48 hrs by sulforhodamine B assay
Assay type: functional
Details: not given

SMILES | GI50 | TGI
CNC(=O)c1cc(Oc2ccc(NC(=O)Nc3ccc(Cl)c(C(F)(F)F)c3)cc2)ccn1 [SORAFENIB] | 2.51 µM | 7.94 µM

Same assay, conditions: read-out: LC50 (the source's name)

SMILES | CC50
CNC(=O)c1cc(Oc2ccc(NC(=O)Nc3ccc(Cl)c(C(F)(F)F)c3)cc2)ccn1 [SORAFENIB] | 63.1 µM

System: T47D
Assay: Antiproliferative activity against human T47D cells assessed as growth inhibition after 48 hrs by sulforhodamine B assay
Assay type: functional
Details: not given

SMILES | TGI
CNC(=O)c1cc(Oc2ccc(NC(=O)Nc3ccc(Cl)c(C(F)(F)F)c3)cc2)ccn1 [SORAFENIB] | 7.94 µM

Same assay, conditions: read-out: LC50 (the source's name)

SMILES | CC50
CNC(=O)c1cc(Oc2ccc(NC(=O)Nc3ccc(Cl)c(C(F)(F)F)c3)cc2)ccn1 [SORAFENIB] | 31.6 µM
